Measurements from US12208118B2, “Pharmaceutical compositions for delivery of peptide” (ANYA BIOPHARM INC., priority 2017, dated 2025).

Tests used:
[1] = Quantification of octreotide in rat plasma using ELISA kit; format: in vivo, S.D. rat; settings: following subcutaneous and distal small intestine (ileum) administration, rats
Description: Quantification of Octreotide in Rat Plasma Using ELISA Kit
Test formulation I: Octreotide—Apprearance: Solution for injection; Concentration: 0.1 mg/ml; Storage condition: 2-8° C.; Dose: 10 μg/kg; Route: SC.
Test formulation II: MIRA 3 (Table 15C)+PA 1 (Table 16C) to be dosed into distal small intestine (ileum) to anesthetized S.D. rat; Dose: 144 μg/animal; Route: distal small intestine (ileum). During the experiment, the animals were non-fasted.
The clinical signs observed are normal. During dosing, the blood collection time points were at 0, 7, 15, 30, 45, 60 and 90 min post dose. ˜100 μl of blood was collected in a pre-filled Na-EDTA eppendorf, from retro-orbital sinus puncture. Blood was centrifuged at 5000 rpm, 5 min, 4° c. to obtain plasma.
Source: PeninsulaLaboratories International, Inc, Cat. No. S-1341.0001
Kit Protocol: Used manufacturer recommended protocol (Cat. No. S-1341.0001)—Into each well of the immunoplate add 25 μl antiserum (in EIA buffer). Add 25 μl EIA buffer to blank wells; Incubate at room temperature for 1 hour; Add 50 μl standard or sample (in diluent). […] Add 50 μl diluent to blank wells; Incubate at room temperature for 2 hours. […] You may read the developing blue color at 650 nm and use the data for your calculations. […] Read absorbance at 450 nm within ten minutes.

[2] = Quantification of liraglutide level in dog plasma using ELISA kit; format: in vivo; settings: following subcutaneous and oral administration, dogs
Description: Quantification of Liraglutide Level in Dog Plasma Using ELISA Kit
Test formulation I: Liraglutide—Appearance: Solution for injection in a prefilled pen; Concentration: 6 mg/ml; Date of manufacture: February 2017; Date of expiry: July 2019; Storage condition: 2-8° C.; Dose: 0.6 mg/dog; Route: SC.
Test formulation II (FA): MIRA 5 (Table 15E)+PA 2 (Table 16F)—Dose: 12 mg (one capsule)/dog; Route: Oral.
Test formulation III (G): MIRA 5 (Table 15E)+PA 3+4 (Table 16G)—Dose: 12 mg (one capsule)/dog; Route: Oral
The clinical signs observed are normal. Body weights of the dogs used in the study were recorded prior to dosing. During the period of dose administration, the dogs (Canis lupus familiaris. Breed: Beagle) were fasted (water allowed) overnight for approx. 12 hours prior to and 4 hours post dose administration. During dosing, the blood collection time points was at 0, 20, 30, 60, 120, 180, 240, 480 minutes post dose. […] Glucose was measured immediately after blood collection using Glucometer. […]
Kit Protocol: Used manufacturer recommended protocol (Cat.No.KBI5020) Ver2.0—(1) Determine wells for diluted standard, blank and sample. […] Add 50 μL each of dilutions of standard (read Reagent Preparation), blank and samples into the appropriate wells, respectively. […] Then, run the microplate reader and conduct measurement at 450 nm immediately.

[3] = Quantification of teriparatide in rat plasma using ELISA kit; format: in vivo, S.D. rats; settings: following subcutaneous and distal small intestine (ileum) administration, rats
Description: Quantification of Teriparatide in Rat Plasma Using ELISA Kit
Test formulation I: Teriparatide; Apprearance: Solution for injection; Concentration: 600 μg/2.4 ml; Storage condition: 2-8° C.; Dose: 10 μg/animal; Route: SC.
Test formulation II: MIRA 4 (Table 15D) plus PA1 (Table 16D) was dosed into distal small intestine (ileum) at a dose of 240 μg/animal to anesthetized rats; Dose: 240 μg/animal; Route: distal small intestine (ileum).
Test formulation III: MIRA 1 (Table 15A) plus PA3 (Table 16E) was dosed into distal small intestine (ileum) at a dose of 240 μg/animal to anesthetized S.D. rats; Dose: 240 μg/animal; Route: distal small intestine (ileum).
During the experiment, the animals were non-fasted. […] The clinical signs observed are normal. […]
Kit Protocol: Used manufacturer recommended protocol (Cat.No. 60-3900)—Place a sufficient number of Streptavidin Coated Strips in a holder to run PTH standards, controls and unknown samples; Pipet 150 μL of standard, control, or sample into the designated or mapped well. […] Read the absorbance at 620 nm (see Note) within 5 minutes in a microtiter plate reader against the 0 μg/mL Standard wells as a blank; Immediately pipet 50 μL of ELISA Stop Solution into each of the wells. […]

Compound: C[C@@H](O)[C@@H]1NC(=O)[C@H](CCCCN)NC(=O)[C@@H](Cc2c[nH]c3ccccc23)NC(=O)[C@H](Cc2ccccc2)NC(=O)[C@@H](NC(=O)[C@H](N)Cc2ccccc2)CSSC[C@@H](C(=O)N[C@H](CO)[C@@H](C)O)NC1=O [octreotide]
- clinical signs [1]: normal
- mortality [1]: no mortality observed

Compound: CCCCCCCCCCCCCCCC(=O)N[C@@H](CCC(=O)NCCCC[C@H](NC(=O)[C@H](C)NC(=O)[C@H](C)NC(=O)[C@H](CCC(N)=O)NC(=O)CNC(=O)[C@H](CCC(=O)O)NC(=O)[C@H](CC(C)C)NC(=O)[C@H](Cc1ccc(O)cc1)NC(=O)[C@H](CO)NC(=O)[C@H](CO)NC(=O)[C@@H](NC(=O)[C@H](CC(=O)O)NC(=O)[C@H](CO)NC(=O)[C@@H](NC(=O)[C@H](Cc1ccccc1)NC(=O)[C@@H](NC(=O)CNC(=O)[C@H](CCC(=O)O)NC(=O)[C@H](C)NC(=O)[C@@H](N)Cc1cnc[nH]1)[C@@H](C)O)[C@@H](C)O)C(C)C)C(=O)N[C@@H](CCC(=O)O)C(=O)N[C@@H](Cc1ccccc1)C(=O)N[C@H](C(=O)N[C@@H](C)C(=O)N[C@@H](Cc1c[nH]c2ccccc12)C(=O)N[C@@H](CC(C)C)C(=O)N[C@H](C(=O)N[C@@H](CCCNC(=N)N)C(=O)NCC(=O)N[C@@H](CCCNC(=N)N)C(=O)NCC(=O)O)C(C)C)[C@@H](C)CC)C(=O)O [Liraglutide]
- clinical signs [2]: normal
- mortality [2]: no mortality observed

Compound: CC[C@H](C)[C@H](NC(=O)[C@H](CCC(=O)O)NC(=O)[C@H](CO)NC(=O)[C@@H](NC(=O)[C@@H](N)CO)C(C)C)C(=O)N[C@@H](CCC(N)=O)C(=O)N[C@@H](CC(C)C)C(=O)N[C@@H](CCSC)C(=O)N[C@@H](Cc1cnc[nH]1)C(=O)N[C@@H](CC(N)=O)C(=O)N[C@@H](CC(C)C)C(=O)NCC(=O)N[C@@H](CCCCN)C(=O)N[C@@H](Cc1cnc[nH]1)C(=O)N[C@@H](CC(C)C)C(=O)N[C@@H](CC(N)=O)C(=O)N[C@@H](CO)C(=O)N[C@@H](CCSC)C(=O)N[C@@H](CCC(=O)O)C(=O)N[C@@H](CCCN=C(N)N)C(=O)N[C@H](C(=O)N[C@@H](CCC(=O)O)C(=O)N[C@@H](Cc1c[nH]c2ccccc12)C(=O)N[C@@H](CC(C)C)C(=O)N[C@@H](CCCN=C(N)N)C(=O)N[C@@H](CCCCN)C(=O)N[C@@H](CCCCN)C(=O)N[C@@H](CC(C)C)C(=O)N[C@@H](CCC(N)=O)C(=O)N[C@@H](CC(=O)O)C(=O)N[C@H](C(=O)N[C@@H](Cc1cnc[nH]1)C(=O)N[C@@H](CC(N)=O)C(=O)N[C@@H](Cc1ccccc1)C(=O)O)C(C)C)C(C)C [teriparatide]
- clinical signs [3]: normal
- mortality [3]: no mortality observed
